Source: ChEMBL document CHEMBL4406870, “Design, synthesis, and biological evaluation of 4-phenoxyquinoline derivatives as potent c-Met kinase inhibitor” (Bioorg Med Chem Lett, 2019)

Tests used:
U-87 MG = test: cells; conditions: Homo sapiens, 72 h
Description: Cytotoxicity against human U87MG cells assessed as reduction in cell viability incubated for 72 hrs by MTT assay

HT-29 [1] = test: cells; conditions: Homo sapiens, HT-29, 72 h
Description: Cytotoxicity against human HT-29 cells assessed as reduction in cell viability incubated for 72 hrs by MTT assay

MKN-45 = test: cells; conditions: Homo sapiens, MKN-45, 72 h
Description: Cytotoxicity against human MKN45 cells assessed as reduction in cell viability incubated for 72 hrs by MTT assay

NCI-H460 [2] = test: cells; conditions: Homo sapiens, NCI-H460, 72 h
Description: Cytotoxicity against human H460 cells assessed as reduction in cell viability incubated for 72 hrs by MTT assay

A549 [3] = test: cells; conditions: Homo sapiens, A549, 72 h
Description: Cytotoxicity against human A549 cells assessed as reduction in cell viability incubated for 72 hrs by MTT assay

[4] = target: Hepatocyte growth factor receptor (Homo sapiens, UniProt P08581); test: Inhibition of cMET (unknown origin) using poly (Glu, Tyr) 4:1 as substrate incubated for 30 mins by HTRF assay
NCI-H460 [5] = test: Potency index, ratio of IC50 of foretinib to IC50 of compound for cytotoxicity against human H460 cells assessed as reduction in cell viability incubated for 72 hrs by MTT assay; type: functional
A549 [6] = test: Potency index, ratio of IC50 of foretinib to IC50 of compound for cytotoxicity against human A549 cells assessed as reduction in cell viability incubated for 72 hrs by MTT assay; type: functional
HT-29 [7] = test: Potency index, ratio of IC50 of foretinib to IC50 of compound for cytotoxicity against human HT-29 cells assessed as reduction in cell viability incubated for 72 hrs by MTT assay; type: functional

Sequence of Hepatocyte growth factor receptor (P08581 whole entry): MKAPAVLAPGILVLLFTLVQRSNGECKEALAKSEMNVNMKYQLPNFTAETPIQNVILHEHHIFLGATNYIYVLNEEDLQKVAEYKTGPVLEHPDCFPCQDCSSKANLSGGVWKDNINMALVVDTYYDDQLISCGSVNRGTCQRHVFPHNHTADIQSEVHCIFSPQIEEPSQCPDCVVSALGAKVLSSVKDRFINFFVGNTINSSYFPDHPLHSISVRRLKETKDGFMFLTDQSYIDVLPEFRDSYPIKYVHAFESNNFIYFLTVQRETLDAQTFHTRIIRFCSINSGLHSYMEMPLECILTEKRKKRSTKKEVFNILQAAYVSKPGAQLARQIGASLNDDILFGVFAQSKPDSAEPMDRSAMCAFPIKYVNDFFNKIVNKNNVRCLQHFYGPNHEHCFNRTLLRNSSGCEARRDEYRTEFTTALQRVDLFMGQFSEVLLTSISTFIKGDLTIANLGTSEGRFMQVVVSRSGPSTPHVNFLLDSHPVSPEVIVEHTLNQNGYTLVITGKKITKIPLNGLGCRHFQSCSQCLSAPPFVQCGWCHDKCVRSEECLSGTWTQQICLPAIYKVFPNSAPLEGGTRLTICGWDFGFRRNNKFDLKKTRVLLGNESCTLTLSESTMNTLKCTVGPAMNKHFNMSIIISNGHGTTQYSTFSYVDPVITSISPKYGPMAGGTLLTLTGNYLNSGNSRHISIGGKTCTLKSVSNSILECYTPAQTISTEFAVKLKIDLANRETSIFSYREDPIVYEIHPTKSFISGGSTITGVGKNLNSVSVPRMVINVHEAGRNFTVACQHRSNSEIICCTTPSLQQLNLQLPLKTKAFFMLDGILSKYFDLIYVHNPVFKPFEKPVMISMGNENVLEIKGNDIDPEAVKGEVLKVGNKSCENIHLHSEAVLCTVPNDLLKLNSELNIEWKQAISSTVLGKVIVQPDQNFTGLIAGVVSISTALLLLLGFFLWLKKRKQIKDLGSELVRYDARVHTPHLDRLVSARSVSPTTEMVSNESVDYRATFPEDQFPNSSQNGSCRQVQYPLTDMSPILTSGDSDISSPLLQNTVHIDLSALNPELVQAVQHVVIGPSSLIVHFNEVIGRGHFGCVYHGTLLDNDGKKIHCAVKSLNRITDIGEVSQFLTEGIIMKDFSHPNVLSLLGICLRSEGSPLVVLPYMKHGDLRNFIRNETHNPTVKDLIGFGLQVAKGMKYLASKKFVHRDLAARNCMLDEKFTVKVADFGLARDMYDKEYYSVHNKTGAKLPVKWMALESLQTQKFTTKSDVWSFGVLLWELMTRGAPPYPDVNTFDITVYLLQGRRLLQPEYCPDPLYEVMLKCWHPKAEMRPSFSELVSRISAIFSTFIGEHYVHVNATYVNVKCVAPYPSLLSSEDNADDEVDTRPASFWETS

| SMILES | IC50 (U-87 MG) | IC50 (HT-29 [1]) | IC50 (MKN-45) | IC50 (NCI-H460 [2]) | IC50 (A549 [3]) | IC50 [4] | Ratio IC50 (NCI-H460 [5]) | Ratio IC50 (A549 [6]) | Ratio IC50 (HT-29 [7]) |
| --- | --- | --- | --- | --- | --- | --- | --- | --- | --- |
| COc1cc2c(Oc3ccc(NC(=O)c4nc5ccccc5n(C5CCCC5)c4=O)cc3F)ccnc2cc1OCCCN1CCCCC1 | 5.21 µM | 4.19 µM | 1.17 µM | 3.08 µM | 4.36 µM |  |  |  |  |
| COc1cc2c(Oc3ccc(NC(=O)c4nc5ccccc5n(C5CCCC5)c4=O)cc3F)ccnc2cc1OCCCN1CCC(C)CC1 | 5.39 µM | 4.43 µM | 3.66 µM | 2.15 µM | 5.79 µM |  |  |  |  |
| COc1cc2c(Oc3ccc(NC(=O)c4nc5ccccc5n(Cc5ccc(F)cc5)c4=O)cc3F)ccnc2cc1OCCCN1CCCCC1 | 2.12 µM | 0.72 µM | 0.22 µM | 0.87 µM | 1.29 µM |  |  |  |  |
| COc1cc2c(Oc3ccc(NC(=O)c4nc5ccccc5n(Cc5ccc(F)cc5)c4=O)cc3F)ccnc2cc1OCCCN1CCC(C)CC1 | 1.96 µM | 0.38 µM | 0.25 µM | 0.62 µM | 0.48 µM | 0.00256 µM |  |  |  |
| COc1cc2c(Oc3ccc(NC(=O)c4nc5ccccc5n(C5CCCCC5)c4=O)cc3F)ccnc2cc1OCCCN1CCOCC1 | 0.81 µM | 0.38 µM | 0.18 µM | 0.18 µM | 0.39 µM | 0.00142 µM | 5 | 5 | 5 |
| COc1cc2c(Oc3ccc(NC(=O)c4nc5ccccc5n(C5CCCC5)c4=O)cc3F)ccnc2cc1OCCCN1CCOCC1 | 2.99 µM | 4.03 µM | 3.5 µM | 1.67 µM | 2.48 µM |  |  |  |  |
| COc1cc2c(Oc3ccc(NC(=O)c4nc5ccccc5n(Cc5ccc(F)cc5)c4=O)cc3F)ccnc2cc1OCCCN1CCOCC1 | 0.65 µM | 2.38 µM | 0.26 µM | 0.93 µM | 2.02 µM |  |  |  |  |
| COc1cc2c(Oc3ccc(NC(=O)c4nc5ccccc5n(C5CCCCC5)c4=O)cc3F)ccnc2cc1OCCCN1CCCCC1 | 0.76 µM | 0.27 µM | 0.27 µM | 0.27 µM | 0.81 µM |  |  |  |  |
| COc1cc2c(Oc3ccc(NC(=O)c4nc5ccccc5n(C5CCCCC5)c4=O)cc3F)ccnc2cc1OCCCN1CCN(C)CC1 | 0.56 µM | 0.23 µM | 0.23 µM | 0.23 µM | 0.32 µM | 0.00234 µM | 5 | 5 | 5 |
| COc1cc2c(Oc3ccc(NC(=O)c4nc5ccccc5n(C5CCCC5)c4=O)cc3F)ccnc2cc1OCCCN1CCN(C)CC1 | 1.59 µM | 2.49 µM | 3.72 µM | 2.11 µM | 4.37 µM |  |  |  |  |
| COc1cc2c(Oc3ccc(NC(=O)c4nc5ccccc5n(C5CCCCC5)c4=O)cc3F)ccnc2cc1OCCCN1CCC(C)CC1 | 1.67 µM | 0.61 µM | 0.25 µM | 0.25 µM | 1.07 µM |  |  |  |  |

Further lines, with some results ahead:

| IC50 (U-87 MG) | IC50 (HT-29 [1]) | IC50 (MKN-45) | IC50 (NCI-H460 [2]) | IC50 (A549 [3]) | IC50 [4] | SMILES | Ratio IC50 (NCI-H460 [5]) | Ratio IC50 (A549 [6]) | Ratio IC50 (HT-29 [7]) |
| --- | --- | --- | --- | --- | --- | --- | --- | --- | --- |
| 2.74 µM | 1.41 µM | 0.65 µM | 1.07 µM | 1.92 µM |  | COc1cc2c(Oc3ccc(NC(=O)c4nc5ccccc5n(CCc5ccccc5)c4=O)cc3F)ccnc2cc1OCCCN1CCC(C)CC1 |  |  |  |
| 1.26 µM | 0.96 µM | 0.31 µM | 0.45 µM | 1.04 µM |  | COc1cc2c(Oc3ccc(NC(=O)c4nc5ccccc5n(CCc5ccccc5)c4=O)cc3F)ccnc2cc1OCCCN1CCN(C)CC1 |  |  |  |
| 2.27 µM | 1.22 µM | 0.41 µM | 0.51 µM | 0.55 µM |  | COc1ccc(CCn2c(=O)c(C(=O)Nc3ccc(Oc4ccnc5cc(OCCCN6CCC(C)CC6)c(OC)cc45)c(F)c3)nc3ccccc32)cc1 |  |  |  |
| 1.73 µM | 1.83 µM | 0.23 µM | 2.24 µM | 2.77 µM |  | COc1cc2c(Oc3ccc(NC(=O)c4nc5ccccc5n(Cc5ccc(F)cc5)c4=O)cc3F)ccnc2cc1OCCCN1CCN(C)CC1 |  |  |  |
| 12.8 µM | 4.94 µM | 0.23 µM | 2.33 µM | 6.23 µM |  | COc1ccc(CCn2c(=O)c(C(=O)Nc3ccc(Oc4ccnc5cc(OCCCN6CCOCC6)c(OC)cc45)c(F)c3)nc3ccccc32)cc1 |  |  |  |
| 1.35 µM | 0.35 µM | 0.78 µM | 1.59 µM | 0.91 µM |  | COc1cc2c(Oc3ccc(NC(=O)c4nc5ccccc5n(CCc5ccccc5)c4=O)cc3F)ccnc2cc1OCCCN1CCOCC1 |  |  |  |
| 1.6 µM | 0.94 µM | 0.48 µM | 0.45 µM | 1.01 µM |  | COc1ccc(CCn2c(=O)c(C(=O)Nc3ccc(Oc4ccnc5cc(OCCCN6CCCCC6)c(OC)cc45)c(F)c3)nc3ccccc32)cc1 |  |  |  |
| 3.62 µM | 0.87 µM | 0.18 µM | 2.11 µM | 2.36 µM |  | COc1cc2c(Oc3ccc(NC(=O)c4nc5ccccc5n(CCc5ccccc5)c4=O)cc3F)ccnc2cc1OCCCN1CCCCC1 |  |  |  |
| > 10 µM | 0.79 µM | 4.17 µM | 3.3 µM | 1.67 µM |  | COc1ccc(CCn2c(=O)c(C(=O)Nc3ccc(Oc4ccnc5cc(OCCCN6CCN(C)CC6)c(OC)cc45)c(F)c3)nc3ccccc32)cc1 |  |  |  |
| 4.28 µM | 1.12 µM | 2.79 µM | 6.7 µM | 5.33 µM |  | COc1cc2c(Oc3ccc(NC(=O)c4nc5ccccc5n(Cc5ccccc5)c4=O)cc3F)ccnc2cc1OCCCN1CCOCC1 |  |  |  |
